Converted amounts (≈) assume the structure as drawn.
Assays:
[1] = tested on: Herpes simplex virus Type 1 (Schooler); experiment: Method 1: inhibition of viral induced cytopathology in primary rabbit kidney cell cultures, HSV-1; format: cell-based; conditions: Human alphaherpesvirus 1; HSV-1 (Schooler), primary rabbit kidney cells; total suppression of cytopathology in 50% of cultures; read-out: Minimum Effective Concentration
Protocol: (§1) Method 1: Confluent monolayers of primary rabbit kidney cell cultures were refed with maintenance medium containing serial dilutions of the test compounds and incubated overnight at 37° C. At each dilution, four cultures were challenged with approximately 10 TCID50 HSV-1, four cultures were challenged with approximately 10 TCID50 HSV-2,and two cultures were left as toxicity controls. Cultures were reincubated at 37° C. and observed for viral induced cytopathology at days 5 and 7. Minimum Effective Concentration (μg/ml) is defined as the concentration of antiviral compound required to totally suppress the development of viral cytopathology in 50% of the infected rabbit kidney cell cultures.

[2] = tested on: Herpes simplex virus Type 2 (Curtis); experiment: Method 1: inhibition of viral induced cytopathology in primary rabbit kidney cell cultures, HSV-2; format: cell-based; conditions: Human alphaherpesvirus 2; HSV-2 (Curtis), primary rabbit kidney cells; total suppression of cytopathology in 50% of cultures; read-out: Minimum Effective Concentration
Protocol: as §1

[3] = tested on: Herpes simplex virus Type 1 (Schooler); experiment: Method 2: virus plaque reduction in MRC-5 cells, HSV-1; format: cell-based; conditions: Human alphaherpesvirus 1, MRC5, 72 h; HSV-1 (Schooler), MRC-5 cells, 3 days; 50% reduction of plaque development; read-out: ED50 (the source's name)
Protocol: Method 2: Confluent monolayers of MRC-5 cells were incubated for one hour at 37° C. with 50-100 plaque forming units of the indicated virus. Following incubation, the cell monolayers were refed with maintenance medium containing 2% methyl cellulose and the chemical agent indicated. Duplicate cultures were incubated with each concentration of the chemical agent tested. Following further incubation for 3 days at 37° C., the monolayers were stained and the developed virus plaques were counted. The concentration (μg/ml) of each chemical agent which reduced plaque development by 50% (ED50) was determined.

[4] = tested on: Herpes simplex virus type 1 (HSV-1), strain Schooler; experiment: Parenteral (subcutaneous) treatment of Herpes simplex virus type 1 infection in mice; format: in vivo, ICR/Ha mice; conditions: s.c.
Protocol: (§2) Twenty gram ICR/Ha mice were injected intraperitoneally (ip) with 0.5 ml of a 10^-5 dilution of a stock preparation of Herpes simplex virus type 1 (HSV-1), strain Schooler. This virus challenge infected each animal with approximately 50 to 100 LD50. Starting immediately after virus infection and continuing twice daily for 4 days, each animal was injected subcutaneously in groups of 10 with: 125 μg, 31 μg, 8 μg or 2 μg of compounds A, B or C; or placebo (physiological saline, pH 11.5). All compounds were solubilized in physiological saline, pH 11.5. The mice were observed daily for 15 days at the same time each day and the day of death was recorded for each animal.
Statistical analyses [reference: Liddel, F.D.K., Evaluation of Survival in Challenge Experiments, Microbiol. Rev., 42, 237 (1978)]were performed on survival times transformed by the negative exponential transformation:
t=number of days an animal survived
T=duration of trial (15 days)
A continuity correction was used to account for daily observation:
Within each group, mice surviving through the trial period were assigned equally values of 0.9 and 1.0 to adjust for termination of the trial.
Average survival time per group was calculated from average corrected transformed survival times [fc (t)] as follows:
t avg=[T/log(0.1).[log(1-fc (t)]

[5] = tested on: Herpes simplex virus type 1 (HSV-1), strain Schooler; experiment: Oral treatment of intraperitoneal HSV-1 infection of mice (Example 16); format: in vivo, ICR/Ha mice
Protocol: as §2, with “(i.p.)” for “(ip)”, “LD50 s.” for “LD50.”, “7” for “4”, “treated by oral gavage” for “injected subcutaneously”, “with: 250 μg, 125 μg, 8 μg or 2 μg of (S)-9-(2,3-dihydroxy-1-propoxymethyl)guanine; 500 μg,” for “with:”, “racemic 9-(2,3-dihydroxy-1-propoxymethyl)guanine;” for “compounds A, B or C;”
(§3) The statistical analyses were carried out as described in Example 15.

[6] = tested on: Herpes simplex virus type 1 (HSV-1), strain Schooler; experiment: Oral treatment of intraperitoneal HSV-1 infection of mice (Example 17); format: in vivo, ICR/Ha mice; conditions: for Percent Survival: at 15 days
Protocol: Twenty gram ICR/Ha mice were injected intraperitoneally (i.p.) with 0.5 ml of a 10^-5 dilution of a stock preparation of Herpes Simplex virus type 1 (HSV-1), strain Schooler. This virus challenge infected mice with approximately 50 to 100 LD50. Starting immediately after virus infection and continuing twice daily for 7 days, each animal was treated by oral gavage in groups of 10 with: 500 μg, 125 μg, 31 μg or 8 μg of (S)-9-(2,3-dihydroxy-1propoxymethyl)guanine; 500 μg, 125 μg, 31 μg or 8 μg of acyclovir or placebo (physiological saline, pH 11.5). All compounds were solubilized in physiological saline, pH 11.5.
as §3

[7] = tested on: Herpes simplex virus type 1 (HSV-1), strain Schooler; experiment: Parenteral (subcutaneous) treatment of Herpes simplex virus type 1 infection in mice; format: in vivo, ICR/Ha mice; conditions: tested not at the same time as A, B, C; for Percent Survival: at 15 days
[8] = 2 μg/dose twice daily for 4 days, 0.2 mg/kg/day, ^3 (all): not statistically different from placebo
[9] = 2 μg/dose twice daily for 4 days, 0.2 mg/kg/day, at 15 days
[10] = 8 μg/dose twice daily for 4 days, 0.8 mg/kg/day, ^3 (all): not statistically different from placebo
[11] = 8 μg/dose twice daily for 4 days, 0.8 mg/kg/day, at 15 days
[12] = 31 μg/dose twice daily for 4 days, 3.1 mg/kg/day, ^3 (all): not statistically different from placebo
[13] = 31 μg/dose twice daily for 4 days, 3.1 mg/kg/day, at 15 days
[14] = 125 μg/dose twice daily for 4 days, 12.5 mg/kg/day, ^3 (B, acyclovir): not statistically different from placebo
[15] = 125 μg/dose twice daily for 4 days, 12.5 mg/kg/day, at 15 days (acyclovir not at the same time)
[16] = 31 μg/dose twice daily for 7 days, 3.1 mg/kg/day, ^3 (all): not statistically different from placebo
[17] = 31 μg/dose twice daily for 7 days, 3.1 mg/kg/day, at 15 days (acyclovir not at the same time)
[18] = 125 μg/dose twice daily for 7 days, 12.5 mg/kg/day, ^3 (racemate, acyclovir): not statistically different from placebo
[19] = 125 μg/dose twice daily for 7 days, 12.5 mg/kg/day, at 15 days (acyclovir not at the same time)
[20] = 500 μg/dose twice daily for 7 days, 50 mg/kg/day (acyclovir not at the same time)
[21] = 500 μg/dose twice daily for 7 days, 50 mg/kg/day, at 15 days (acyclovir not at the same time)
[22] = 125 μg/dose twice daily for 7 days, 12.5 mg/kg/day
[23] = 500 μg/dose twice daily for 7 days, 50 mg/kg/day

SMILES	minimal effective concentration [1]	minimal effective concentration [2]	EC50 [3]	Avg. Survival Time [4, 8]	Percent Survival [4, 9]	Avg. Survival Time [4, 10]	Percent Survival [4, 11]	Avg. Survival Time [4, 12]	Percent Survival [4, 13]	Avg. Survival Time [4, 14]	Percent Survival [4, 15]	Avg. Survival Time [5, 16]	Percent Survival [5, 17]	Avg. Survival Time [5, 18]	Percent Survival [5, 19]	Avg. Survival Time [5, 20]	Percent Survival [5, 21]	also measured
Nc1nc2c(ncn2COCC(O)CO)c(=O)[nH]1 (racemic) [C, Racemic 9-(2,3-dihydroxy-1-propoxymethyl)guanine]	3.1 to 6 µg/mL	6 to 12 µg/mL	1 µg/mL (≈ 3.92 µM)	6.7 days	10%	6.6 days	0%	7.2 days	0%	8.6 days	20%	7.6 days	0%	8.4 days	10%	10.7 days	20%	Avg. Survival Time ([5]; 2 μg/dose twice daily for 7 days, 0.2 mg/kg/day, ^3 (all): not statistically different from placebo): 6.9 days; Percent Survival ([5]; 2 μg/dose twice daily for 7 days, 0.2 mg/kg/day, at 15 days): 0%; Avg. Survival Time ([5]; 8 μg/dose twice daily for 7 days, 0.8 mg/kg/day, ^3 (all): not statistically different from placebo): 6.8 days; Percent Survival ([5]; 8 μg/dose twice daily for 7 days, 0.8 mg/kg/day, at 15 days): 0%; protection over placebo-treated animals, as measured by average survival time ([5]; 50 mg/kg/day): conferred significant protection over placebo-treated animals
Nc1nc2c(ncn2COCCO)c(=O)[nH]1 [Acyclovir, 9-(2-hydroxyethoxymethyl)guanine]	–	–	–	–	–	–	–	–	–	7.0 days	6%	6.3 days	0%	6.6 days	0%	8.2 days	20%	Percent Survival ([5]; 1000 μg/dose, 100 mg/kg/day, at 15 days, tested not at the same time): 60%; Avg. Survival Time ([5]; 1000 μg/dose, 100 mg/kg/day, tested not at the same time): 11.4 days; Avg. Survival Time ([6]; 8 μg/dose twice daily for 7 days, 0.8 mg/kg/day, ^b (all): not statistically different from placebo): 6.1 days; Percent Survival ([6]; 8 μg/dose twice daily for 7 days, 0.8 mg/kg/day): 0%; Avg. Survival Time ([6]; 31 μg/dose twice daily for 7 days, 3.1 mg/kg/day, ^b (all): not statistically different from placebo): 6.5 days; Percent Survival ([6]; 31 μg/dose twice daily for 7 days, 3.1 mg/kg/day): 0%; Avg. Survival Time [6, 22]: 7.6 days; Percent Survival [6, 22]: 10%; Avg. Survival Time [6, 23]: 8.7 days; Percent Survival [6, 23]: 20%; protection over placebo-treated animals, as measured by average survival time ([6]; 12.5 mg/kg/day): conferred significant protection over placebo-treated animals; protection over placebo-treated animals, as measured by average survival time ([6]; 50 mg/kg/day): conferred significant protection over placebo-treated animals; Percent Survival ([7]; 500 μg/dose, 50 mg/kg/day): 0%; Avg. Survival Time ([7]; 500 μg/dose, 50 mg/kg/day): 7.8 days; Percent Survival ([7]; 1000 μg/dose, 100 mg/kg/day): 10%; Avg. Survival Time ([7]; 1000 μg/dose, 100 mg/kg/day): 7.8 days
Nc1nc2c(ncn2COC[C@H](O)CO)c(=O)[nH]1 [B, (R)-9-(2,3-dihydroxy-1-propoxymethyl)guanine]	25 µg/mL	25 to 50 µg/mL	6.2 µg/mL (≈ 24.3 µM)	6.0 days	0%	6.3 days	0%	6.5 days	10%	7.5 days	10%	–	–	–	–	–	–	–
